What all share (assay type): functional
The species entered for assay [1] is Rattus norvegicus. As to the kind of experiment: Evaluated for histamine releasing activity.
The species entered for assay [2] is Rattus norvegicus. Kind of assay: Antiovulatory activity expressed as ratio of rats ovulated/total rats at a dose of 0.5 microg; 5/8.
The species named for assay [3] is Rattus norvegicus. Kind of assay: Antiovulatory activity expressed as ratio of rats ovulated/total rats at a dose of 0.5 microg; 6/7.
Assay [4] is filed under the species Rattus norvegicus. Kind of assay: Antiovulatory activity expressed as ratio of rats ovulated/total rats at a dose of 0.5 microg; 3/6.
Assay [5] is filed under the species Rattus norvegicus. Kind of assay: Antiovulatory activity expressed as ratio of rats ovulated/total rats at a dose of 0.25 microg; 3/7.
The species named for assay [6] is Rattus norvegicus. Kind of assay: Antiovulatory activity expressed as ratio of rats ovulated/total rats at a dose of 0.5 microg; 2/12.
The species entered for assay [7] is Rattus norvegicus. Kind of assay: Antiovulatory activity expressed as ratio of rats ovulated/total rats at a dose of 1.0 ug; 0/6.
The species entered for assay [8] is Rattus norvegicus. Kind of assay: Antiovulatory activity expressed as ratio of rats ovulated/total rats at a dose of 0.5 microg; 3/5.
For assay [9], the species on record is Rattus norvegicus. As to the kind of experiment: Antiovulatory activity expressed as ratio of rats ovulated/total rats at a dose of 0.25 microg; 6/10.
For assay [10], the species on record is Rattus norvegicus. As to the kind of experiment: Antiovulatory activity expressed as ratio of rats ovulated/total rats at a dose of 0.5 microg; 0/10.
The species named for assay [11] is Rattus norvegicus. As to the kind of experiment: Antiovulatory activity expressed as ratio of rats ovulated/total rats at a dose of 0.5 microg; 2/6.
The species entered for assay [12] is Rattus norvegicus. Kind of assay: Antiovulatory activity expressed as ratio of rats ovulated/total rats at a dose of 1.0 ug; […].
The species named for assay [13] is Rattus norvegicus. As to the kind of experiment: Antiovulatory activity expressed as ratio of rats ovulated/total rats at a dose of 0.5 microg; 2/9.
The species entered for assay [14] is Rattus norvegicus. Kind of assay: Antiovulatory activity expressed as ratio of rats ovulated/total rats at a dose of 0.5 microg; 9/25.
Assay [15] is filed under the species Rattus norvegicus. As to the kind of experiment: Antiovulatory activity expressed as ratio of rats ovulated/total rats at a dose of 1.0 ug; 0/10.
The species named for assay [16] is Rattus norvegicus. As to the kind of experiment: Antiovulatory activity expressed as ratio of rats ovulated/total rats at a dose of 0.5 microg; 5/5.
For assay [17], the species on record is Rattus norvegicus. As to the kind of experiment: Antiovulatory activity expressed as ratio of rats ovulated/total rats at a dose of 0.5 microg; 5/6.
For assay [18], the species on record is Rattus norvegicus. As to the kind of experiment: Antiovulatory activity expressed as ratio of rats ovulated/total rats at a dose of 1.0 ug; 0/8.
The species named for assay [19] is Rattus norvegicus. Kind of assay: Antiovulatory activity expressed as ratio of rats ovulated/total rats at a dose of 0.5 microg; 3/8.
For assay [20], the species on record is Rattus norvegicus. As to the kind of experiment: Antiovulatory activity expressed as ratio of rats ovulated/total rats at a dose of 0.5 microg; 2/5.
The species named for assay [21] is Rattus norvegicus. Kind of assay: Antiovulatory activity expressed as ratio of rats ovulated/total rats at a dose of 0.5 microg; 4/5.
The species entered for assay [22] is Rattus norvegicus. As to the kind of experiment: Antiovulatory activity expressed as ratio of rats ovulated/total rats at a dose of 1.0 ug; 1/6.
For assay [23], the species on record is Rattus norvegicus. Kind of assay: Antiovulatory activity expressed as ratio of rats ovulated/total rats at a dose of 0.5 microg; 3/13.
The species named for assay [24] is Rattus norvegicus. Kind of assay: Antiovulatory activity expressed as ratio of rats ovulated/total rats at a dose of 0.25 microg; 2/12.

Experimental findings from ChEMBL document CHEMBL1127579, “Novel, potent luteinizing hormone-releasing hormone antagonists with improved solubility in water” (1994) are described below.

Molecules are shown by their SMILES. Converted amounts (≈) assume the structure as drawn.

`CC(=O)N[C@H](Cc1ccc2ccccc2c1)C(=O)N[C@H](Cc1ccc(Cl)cc1)C(=O)N[C@H](Cc1cccnc1)C(=O)N[C@@H](CO)C(=O)N[C@@H](CCCCNC(=O)c1cccnc1)C(=O)N[C@H](CCCCNC(=O)c1ccccn1)C(=O)N[C@@H](CC(C)C)C(=O)N[C@@H](CCCCN)C(=O)N1CCC[C@H]1C(=O)N[C@H](C)C(=O)O`: the ED50 in the assay listed under Rattus norvegicus [1] was 60 µg/mL (≈ 38.7 µM). Also, the Ratio in the assay listed under Rattus norvegicus [2] is given as 5.
For `CC(=O)N[C@H](Cc1ccc2ccccc2c1)C(=O)N[C@H](Cc1ccc(Cl)cc1)C(=O)N[C@H](Cc1cccnc1)C(=O)N[C@@H](CO)C(=O)N[C@@H](CCCCNC(=O)c1nccnc1N)C(=O)N[C@H](CCCCNC(=O)c1nccnc1N)C(=O)N[C@@H](CC(C)C)C(=O)N[C@@H](CCCCNC(C)C)C(=O)N1CCC[C@H]1C(=O)N[C@H](C)C(=O)O`, in the assay filed under Rattus norvegicus [3], the Ratio turned out to be 6.
As to `CC(=O)N[C@H](Cc1ccc2ccccc2c1)C(=O)N[C@H](Cc1ccc(Cl)cc1)C(=O)N[C@H](Cc1cccnc1)C(=O)N[C@@H](CO)C(=O)N[C@@H](CCCCNC(=O)c1cnccn1)C(=O)N[C@H](CCCCNC(=O)c1ccccn1)C(=O)N[C@@H](CC(C)C)C(=O)N[C@@H](CCCCN)C(=O)N1CCC[C@H]1C(=O)N[C@H](C)C(=O)O`, the Ratio in the assay filed under Rattus norvegicus [4] is on record as 3.
`CC(=O)N[C@H](Cc1ccc2ccccc2c1)C(=O)N[C@H](Cc1ccc(Cl)cc1)C(=O)N[C@H](Cc1cccnc1)C(=O)N[C@@H](CO)C(=O)N[C@@H](CCCCNC(=O)c1ccccn1)C(=O)N[C@H](CCCCNC(=O)c1ccc(N)nc1)C(=O)N[C@@H](CC(C)C)C(=O)N[C@@H](CCCCNC(C)C)C(=O)N1CCC[C@H]1C(=O)N[C@H](C)C(=O)O` yielded an ED50 in the assay listed under Rattus norvegicus [1] of 96 µg/mL (≈ 59.7 µM). The Ratio in the assay listed under Rattus norvegicus [5] was 3; in the assay filed under Rattus norvegicus [6], 2; in the assay filed under Rattus norvegicus [7], 0.
`CC(C)C[C@H](NC(=O)[C@@H](CCCCNC(=O)c1ccc(N)nc1)NC(=O)[C@H](Cc1ccc(O)cc1)NC(=O)[C@H](CO)NC(=O)[C@@H](Cc1cccnc1)NC(=O)[C@@H](Cc1ccc(Cl)cc1)NC(=O)[C@H](N)Cc1ccc2ccccc2c1)C(=O)N[C@@H](CCCN=C(N)N)C(=O)N1CCC[C@H]1C(=O)N[C@H](C)C(=O)O`: the Ratio in the assay filed under Rattus norvegicus [8] was found to be 3.
Consider `CC(=O)N[C@H](Cc1ccc2ccccc2c1)C(=O)N[C@H](Cc1ccc(Cl)cc1)C(=O)N[C@H](Cc1cccnc1)C(=O)N[C@@H](CO)C(=O)N[C@@H](CCCCNC(=O)c1ccccn1)C(=O)N[C@H](CCCCNC(=O)c1ccccn1)C(=O)N[C@@H](CC(C)C)C(=O)N[C@@H](CCCCN)C(=O)N1CCC[C@H]1C(=O)N[C@H](C)C(=O)O`, for which, in the assay filed under Rattus norvegicus [1], the ED50 is 93 µg/mL (≈ 60 µM). Also, the values for the Ratio in the assay filed under Rattus norvegicus [9] and in the assay listed under Rattus norvegicus [10] were 6 and 0, respectively.
As for `CC(=O)N[C@H](Cc1ccc2ccccc2c1)C(=O)N[C@H](Cc1ccc(Cl)cc1)C(=O)N[C@H](Cc1cccnc1)C(=O)N[C@@H](CO)C(=O)N[C@@H](CCCCNC(=O)c1ccccn1)C(=O)N[C@H](CCCCNC(=O)c1cccc(N)n1)C(=O)N[C@@H](CC(C)C)C(=O)N[C@@H](CCCN=C(N)N)C(=O)N1CCC[C@H]1C(=O)N[C@H](C)C(=O)O`, the Ratio in the assay filed under Rattus norvegicus [11] is 2.
Regarding `CC(=O)N[C@H](Cc1ccc2ccccc2c1)C(=O)N[C@H](Cc1ccc(Cl)cc1)C(=O)N[C@H](Cc1cccnc1)C(=O)N[C@@H](CO)C(=O)N[C@@H](CCCCNC(=O)c1cccnc1)C(=O)N[C@H](CCCCNC(=O)c1cnccn1)C(=O)N[C@@H](CC(C)C)C(=O)N[C@@H](CCCCN)C(=O)N1CCC[C@H]1C(=O)N[C@H](C)C(=O)O`, the ED50 in the assay listed under Rattus norvegicus [1] came out at 263 µg/mL (≈ 170 µM). In addition, the Ratio came to 1 in the assay filed under Rattus norvegicus [12] and 2 in the assay filed under Rattus norvegicus [13].
With `CC(=O)N[C@H](Cc1ccc2ccccc2c1)C(=O)N[C@H](Cc1ccc(Cl)cc1)C(=O)N[C@H](Cc1cccnc1)C(=O)N[C@@H](CO)C(=O)N[C@@H](CCCCNC(=O)c1cccnc1)C(=O)N[C@H](CCCCNC(=O)c1cccnc1)C(=O)N[C@@H](CC(C)C)C(=O)N[C@@H](CCCCN)C(=O)N1CCC[C@H]1C(=O)N[C@H](C)C(=O)O`, in the assay filed under Rattus norvegicus [1], the ED50 was above 300 µg/mL. Also, the Ratio came to 9 in the assay filed under Rattus norvegicus [14] and 0 in the assay listed under Rattus norvegicus [15].
On to `CC(C)C[C@H](NC(=O)[C@@H](CCCCNC(=O)c1ccc(N)nc1)NC(=O)[C@H](CCCCNC(=O)c1ccccn1)NC(=O)[C@@H](NC(=O)[C@@H](Cc1cccnc1)NC(=O)[C@@H](Cc1ccc(Cl)cc1)NC(=O)[C@H](N)Cc1ccc2ccccc2c1)[C@@H](C)O)C(=O)N[C@@H](CCCN=C(N)N)C(=O)N1CCC[C@H]1C(=O)N[C@H](C)C(=O)O`, for which the Ratio in the assay filed under Rattus norvegicus [16] was found to be 5.
Regarding `CC(=O)N[C@H](Cc1ccc2ccccc2c1)C(=O)N[C@H](Cc1ccc(Cl)cc1)C(=O)N[C@H](Cc1cccnc1)C(=O)N[C@@H](CO)C(=O)N[C@@H](CCCCNC(=O)c1cnccn1)C(=O)N[C@H](CCCCNC(=O)c1cnccn1)C(=O)N[C@@H](CC(C)C)C(=O)N[C@@H](CCCCN)C(=O)N1CCC[C@H]1C(=O)N[C@H](C)C(=O)O`, the Ratio in the assay listed under Rattus norvegicus [17] was 5.
In turn, `CC(=O)N[C@H](Cc1ccc2ccccc2c1)C(=O)N[C@H](Cc1ccc(Cl)cc1)C(=O)N[C@H](Cc1cccnc1)C(=O)N[C@@H](CO)C(=O)N[C@@H](CCCCNC(=O)c1ccccn1)C(=O)N[C@H](CCCCNC(=O)c1cccnc1)C(=O)N[C@@H](CC(C)C)C(=O)N[C@@H](CCCCN)C(=O)N1CCC[C@H]1C(=O)N[C@H](C)C(=O)O` came in with an ED50 in the assay filed under Rattus norvegicus [1] of 39 µg/mL (≈ 25.2 µM). The Ratio in the assay filed under Rattus norvegicus [18] worked out at 0; in the assay filed under Rattus norvegicus [19], 3.
As to `CC(=O)N[C@H](Cc1ccc2ccccc2c1)C(=O)N[C@H](Cc1ccc(Cl)cc1)C(=O)N[C@H](Cc1cccnc1)C(=O)N[C@@H](CO)C(=O)N[C@@H](CCCCNC(=O)c1ccccn1)C(=O)N[C@H](CCCCNC(=O)c1cccnc1N)C(=O)N[C@@H](CC(C)C)C(=O)N[C@@H](CCCCNC(C)C)C(=O)N1CCC[C@H]1C(=O)N[C@H](C)C(=O)O`, in the assay filed under Rattus norvegicus [20], the Ratio amounted to 2.
Take `CC(=O)N[C@H](Cc1ccc2ccccc2c1)C(=O)N[C@H](Cc1ccc(Cl)cc1)C(=O)N[C@H](Cc1cccnc1)C(=O)N[C@@H](CO)C(=O)N[C@@H](CCCNC(=O)c1cnccn1)C(=O)N[C@H](CCCNC(=O)c1ccc(N)nc1)C(=O)N[C@@H](CC(C)C)C(=O)N[C@@H](CCCN=C(N)N)C(=O)N1CCC[C@H]1C(=O)N[C@H](C)C(=O)O`: in the assay listed under Rattus norvegicus [21], the Ratio amounted to 4.
Molecule `CC(=O)N[C@H](Cc1ccc2ccccc2c1)C(=O)N[C@H](Cc1ccc(Cl)cc1)C(=O)N[C@H](Cc1cccnc1)C(=O)N[C@@H](CO)C(=O)N[C@@H](CCCCNC(=O)c1ccccn1)C(=O)N[C@H](CCCCNC(=O)c1nccnc1N)C(=O)N[C@@H](CC(C)C)C(=O)N[C@@H](CCCCNC(C)C)C(=O)N1CCC[C@H]1C(=O)N[C@H](C)C(=O)O` yielded an ED50 in the assay listed under Rattus norvegicus [1] of 100 µg/mL (≈ 62.2 µM). Also, the Ratio in the assay listed under Rattus norvegicus [22] is recorded as 1; in the assay filed under Rattus norvegicus [23], 3.
Turning to `CC(=O)N[C@H](Cc1ccc2ccccc2c1)C(=O)N[C@H](Cc1ccc(Cl)cc1)C(=O)N[C@H](Cc1cccnc1)C(=O)N[C@@H](CO)C(=O)N[C@@H](CCCCNC(=O)c1ccccn1)C(=O)N[C@H](CCCCNC(=O)c1ccc(N)nc1)C(=O)N[C@@H](CC(C)C)C(=O)N[C@@H](CCCN=C(N)N)C(=O)N1CCC[C@H]1C(=O)N[C@H](C)C(=O)O`, the ED50 in the assay filed under Rattus norvegicus [1] came out at 8 µg/mL (≈ 5.02 µM). Besides, the Ratio came to 2 in the assay listed under Rattus norvegicus [24], 2 in the assay filed under Rattus norvegicus [11] and 0 in the assay filed under Rattus norvegicus [7].
